Test results reported in US11396512B2, “CDK2/4/6 inhibitors” (Pfizer Inc., priority 2016, dated 2022).
pKi: −log10 of the molar value.

Key:
[1] = test system: HCC1806 mouse tumor xenograft; assay: HCC1806 tumor model (mouse xenograft); format: in vivo; settings: NU/NU female mice, 30 mpk PO BID, 50 mpk PO BID and 75 mpk PO BID, 14 days
Method: Source: HCC1806 (#CRL 2335, ATCC, Manassas, Va.)
The HCC1806 tumor cell line was cultured in RPM11640 media supplemented with 10% Fetal Bovine Serum (FBS). To establish a HCC1806 xenograft model, 5×10^6 cells per mouse were implanted subcutaneously into right hind flank NU/NU female mice. Cells were suspended in 50% Cultrex Basement Membrane Extract and 50% RPMI 1640 media serum free media prior to implantation.
Animals were randomized 7 days after cells implantation with each group consisting of 13 mice. Treatment began when tumors reached 100 mm^3 to 170 mm^3 in size on Day 7. Test compounds were prepared in 0.1% Tween, 0.5% Methyl cellulose in water and dosed PO at 30, 50, and 75 mg/kg as a suspension BID for 14 days. Mice receiving no drugs were given vehicle BID for 14 days. Tumor volumes were measured twice a week with an electric caliper, with tumor volumes calculated using Length×Width×Width/2 formula. Animal weights were recorded twice weekly.

CDK6/Cyclin D1 = CDK6/Cyclin D1 (Homo sapiens (Human), UniProt Q00534); assay: biochemical
Sequence of CDK6/Cyclin D1 (Q00534 whole entry): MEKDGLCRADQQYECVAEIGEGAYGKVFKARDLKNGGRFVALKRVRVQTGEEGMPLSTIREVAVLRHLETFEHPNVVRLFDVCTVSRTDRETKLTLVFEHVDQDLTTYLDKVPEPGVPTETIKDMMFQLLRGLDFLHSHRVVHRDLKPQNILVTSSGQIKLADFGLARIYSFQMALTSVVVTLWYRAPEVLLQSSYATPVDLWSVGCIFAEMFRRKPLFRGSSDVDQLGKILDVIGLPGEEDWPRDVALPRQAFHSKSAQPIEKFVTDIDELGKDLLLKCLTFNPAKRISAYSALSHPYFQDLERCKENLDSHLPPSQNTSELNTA
Sequence of CDK6/Cyclin D1 (P24385 whole entry partner): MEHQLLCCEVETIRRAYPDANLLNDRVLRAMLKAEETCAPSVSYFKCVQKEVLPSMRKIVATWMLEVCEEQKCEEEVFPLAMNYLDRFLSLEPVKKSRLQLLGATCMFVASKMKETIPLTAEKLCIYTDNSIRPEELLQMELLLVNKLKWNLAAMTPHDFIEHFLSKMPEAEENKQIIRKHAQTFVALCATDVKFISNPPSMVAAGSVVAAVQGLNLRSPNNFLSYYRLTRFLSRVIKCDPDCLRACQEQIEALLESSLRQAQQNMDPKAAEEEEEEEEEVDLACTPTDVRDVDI

pKi (CDK6/Cyclin D1)	SMILES	inhibition of tumor growth (mm^3) [1]
	C[C@@]1(O)CCC[C@H]1n1c(=O)ccc2cnc(NC3CCN(S(C)(=O)=O)CC3)nc21 [Example 2, 8-[(1R,2R)-2-hydroxy-2-methylcyclopentyl]-2-{[1-(methylsulfonyl)piperidin-4-yl]amino}pyrido[2,3-d]pyrimidin-7(8H)-one]	dose dependent inhibition of tumor growth
7.95	C[C@]1(O)CCCC1n1c(=O)ccc2cnc(NC3CCN(S(=O)(=O)C(F)(F)F)CC3)nc21 (single isomer, unassigned) [Example 89]	
